# Where a name gives a salt, the structure may show the parent alone.
# Biological target: α7 nicotinic acetylcholine receptor (Homo sapiens, UniProt P36544)
# Type: cell-based
# Chain of α7 nicotinic acetylcholine receptor (P36544 23-502): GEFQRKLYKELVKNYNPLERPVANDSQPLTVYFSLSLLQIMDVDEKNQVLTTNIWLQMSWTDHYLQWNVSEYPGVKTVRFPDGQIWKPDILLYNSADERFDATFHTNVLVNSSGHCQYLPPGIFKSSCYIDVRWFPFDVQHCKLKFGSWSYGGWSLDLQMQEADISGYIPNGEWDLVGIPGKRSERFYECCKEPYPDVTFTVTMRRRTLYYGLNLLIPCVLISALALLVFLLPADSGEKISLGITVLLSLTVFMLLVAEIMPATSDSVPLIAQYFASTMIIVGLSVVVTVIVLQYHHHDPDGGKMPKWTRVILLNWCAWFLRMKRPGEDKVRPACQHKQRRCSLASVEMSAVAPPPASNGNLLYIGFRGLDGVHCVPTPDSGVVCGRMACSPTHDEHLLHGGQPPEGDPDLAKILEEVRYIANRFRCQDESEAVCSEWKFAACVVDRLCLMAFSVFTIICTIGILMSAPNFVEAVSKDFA
structure (smiles),measurement,value
"O=C(c1ccc(-c2cccc(C(F)(F)F)c2)o1)N1CCN2CCC1CC2 [NS6740, 1,4-diazabicyclo[3.2.2]nonan-4-yl(5-(3-(trifluoromethyl)-phenyl)-furan-2-yl)methanone hydrochloride]",EC50,420 nM

# Reference: publication PMC8478151 (European journal of pharmacology, 2021)
